Source: patent publication US20190224153A1, “L-DOPA DERIVATIVES FOR THE TREATMENT OF NEUROLOGICAL DISEASES” (BERLIREM GMBH, priority 2016, published 2019)

Legend:
[1] = Stability against hydrolytic cleavage, aprotic versus aqueous solutions; type: physicochemical; details: aprotic solutions compared to aqueous solutions
Description: It is an additional aspect of the invention that the high solubility of the L-DOPA ester in aprotic solvents suitable for parenteral application (such as e.g. N-Methylpyrrolidone, Polysorbat 80, Dimethylacetamide, Solutol HS 15, Glycerol, Ethanol) also relates to L-DOPA esters known before the application date of WO 2016/155888 A1, in particular L-DOPA ethyl ester described in WO 2012/079072 A2 (Heller et al.). […] Moreover the stability is much higher even at pH-values of 5-8. L-DOPA ethyl ester solutions in aprotic solvents suitable for parenteral application could therefore solve tolerability problems known from earlier attempts to use L-DOPA ethyl ester in the treatment of neurological diseases.

[2] = Enzymatic cleavage of L-DOPA esters in human plasma (ex vivo); details: pH 7.4, 37° C., after 2 hours, n=3
Description: After 2, 15, 30, 45, 60 and 120 min 200 μL sample were taken, immediately deproteinized (200 μL 0.4N PCA), precipitated (200 μL 0.1% formic acid) and centrifuged. […] For purpose of comparison L-Dopa Ethyl Ester was investigated under same conditions.

Row | converted to L-Dopa [2] | Compound | stability against hydrolytic cleavage [1]
1 | 50% | CCOC(=O)[C@@H](N)Cc1ccc(O)c(O)c1 [L-DOPA Ethyl Ester] | higher stability against hydrolytic cleavage compared to aqueous solutions
2 | 60% | N[C@@H](Cc1ccc(O)c(O)c1)C(=O)OCC(O)CO (stereo partly drawn) [L-DOPA Glycerin ester] | –
